Results on 21 compounds are retold here after patent publication US12240862B2, “Inhibitors of peptidylarginine deiminases” (Gilead Sciences, Inc., priority 2020, dated 2025).

This assay addresses T1, human PAD4 (Homo sapiens, UniProt Q9UM07).
T1 construct: human PAD4 (NM_012387), A2P663, was PCR amplified; His-SUMO (N, cleaved yes); made in house; host or cells: E. coli BL21(DE3)
Put plainly: In vitro PAD4 BAEE biochemical assay. The note with it: human PAD4, BAEE substrate; 5 nM PAD4, 2 mM calcium chloride, 3 mM BAEE; geometric mean of multiple experiments. The procedure, abridged: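 Tag-free recombinant hPAD4 (5 nM), 2 mM CaCl2, 3 mM BAEE, 50 mM MOPS pH 7.6, 2 mM DTT; 30 min compound preincubation, 2 h reaction, all 25 °C. EDTA quench; ammonia read via o-phthalaldehyde amine coupling, 1 h.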

T1 sequence (Q9UM07 2-663): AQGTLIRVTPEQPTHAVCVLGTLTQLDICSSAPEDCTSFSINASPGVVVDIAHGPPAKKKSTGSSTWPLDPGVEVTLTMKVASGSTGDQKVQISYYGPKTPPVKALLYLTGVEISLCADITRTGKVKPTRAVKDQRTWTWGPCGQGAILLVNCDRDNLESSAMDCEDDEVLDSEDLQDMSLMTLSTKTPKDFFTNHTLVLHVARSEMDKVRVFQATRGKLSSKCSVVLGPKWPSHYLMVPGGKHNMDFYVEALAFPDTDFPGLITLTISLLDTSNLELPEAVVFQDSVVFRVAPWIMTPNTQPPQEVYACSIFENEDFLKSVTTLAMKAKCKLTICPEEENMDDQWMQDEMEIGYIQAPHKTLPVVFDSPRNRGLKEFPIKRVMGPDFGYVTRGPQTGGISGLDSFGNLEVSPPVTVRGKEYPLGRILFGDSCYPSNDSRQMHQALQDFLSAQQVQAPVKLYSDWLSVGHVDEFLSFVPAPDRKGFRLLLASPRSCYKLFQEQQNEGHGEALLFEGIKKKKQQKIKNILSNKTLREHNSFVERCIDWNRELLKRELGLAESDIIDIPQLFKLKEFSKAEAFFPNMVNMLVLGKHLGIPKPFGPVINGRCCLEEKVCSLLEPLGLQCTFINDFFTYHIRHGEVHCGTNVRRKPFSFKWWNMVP

Take `COc1cc(C(=O)N2CCC[C@@H](N)C2)cc2nc(-c3cc4ccc(N(C)S(C)(=O)=O)nc4n3CC3CC3)c(C)n12` [Example 482, ~{N}-[2-[7-[(3~{R})-3-aminopiperidine-1-carbonyl]-5-methoxy-3-methylimidazo[1,2-a]pyridin-2-yl]-1-(cyclopropylmethyl)pyrrolo [2,3-b]pyridin-6-yl]-~{N}-methylmethanesulfonamide]: the half-maximal inhibitory concentration (IC50) worked out at 171 nM. In the case of `CCN(c1ccc2cc(-c3nc4cc(C(=O)N5CCC[C@@H](N)[C@H]5C)cc(OC)n4c3C)n(CC3CC3)c2n1)S(C)(=O)=O` [Example 483, ~{N}-[2-[7-[(2~{R}, 3~{R})-3-amino-2-methylpiperidine-1-carbonyl]-5-methoxy-3-methylimidazo[1,2-a]pyridin-2-yl]-1-(cyclopropylmethyl)pyrrolo [2,3-b]pyridin-6-yl]-~{N}-ethylmethanesulfonamide], the IC50 came to 128 nM.

As for `CCN(c1ccc2cc(-c3nc4cc(C(=O)N5CCC[C@@H](N)C5)cc(OC)n4c3C)n(CC3CC3)c2n1)S(C)(=O)=O` [Example 484, ~{N}-[2-[7-[(3~{R})-3-aminopiperidine-1-carbonyl]-5-methoxy-3-methylimidazo[1,2-a]pyridin-2-yl]-1-(cyclopropylmethyl)pyrrolo [2,3-b]pyridin-6-yl]-~{N}-ethylmethanesulfonamide], the IC50 worked out at 145 nM.

As to `COc1cc(C(=O)N2[C@H]3CC[C@@H]2[C@H](N)C3)cc2nc(-c3cc4ccc([C@@H](C)NC(=O)C(C)(C)C)nc4n3CC34CC(C3)C4)c(C3CC3)n12` [Example 486, N—((R)-1-(2-(7-((1R,2R,4S)-2-amino-7-azabicyclo[2.2.1]heptane-7-carbonyl)-3-cyclopropyl-5-methoxyimidazo[1,2-a]pyridin-2-yl)-1-(bicyclo[1.1.1]pentan-1-ylmethyl)-1H-pyrrolo[2,3-b]pyridin-6-yl)ethyl)pivalamide], the IC50 stood at 666 nM. With `COc1cc(C(=O)N2[C@H]3CC[C@@H]2[C@H](N)C3)cc2nc(-c3cc4ccc([C@@H](C)NC(=O)N5CCC5)nc4n3CC34CC(C3)C4)c(C)n12` [Example 488], the IC50 was determined as 86.8 nM. Then `COc1cc(C(=O)N2[C@H]3CC[C@@H]2[C@H](N)C3)cc2nc(-c3cc4ccc([C@@H](C)NC(=O)c5ccccc5)nc4n3CC34CC(C3)C4)c(C)n12` [Example 489, ~{N}-[(1~{R})-1-[2-[7-[(1~{R},2~{R},4~{S})-2-amino-7-azabicyclo[2.2.1]heptane-7-carbonyl]-5-methoxy-3-methylimidazo[1,2-a]pyridin-2-yl]-1-(1-bicyclo [1.1.1]pentanylmethyl)pyrrolo[2,3-b]pyridin-6-yl]ethyl]benzamide], with 177 nM; and `COc1cc(C(=O)N2[C@H]3CC[C@@H]2[C@H](N)C3)cc2nc(-c3cc4ccc(N(C)S(C)(=O)=O)nc4n3CC3CC3C)c(C)n12` (stereo partly drawn) [Example 490, ~{N}-[2-[7-[(1~{R},2~{R}, 4~{S})-2-amino-7-azabicyclo[2.2.1]heptane-7-carbonyl]-5-methoxy-3-methylimidazo[1,2-a]pyridin-2-yl]-1-[(2-methylcyclopropyl)methyl]pyrrolo[2,3-b]pyridin-6-yl]-~{N}-methylmethanesulfonamide], with 75.4 nM; and `CCOC(=O)N(C)c1ccc2cc(-c3nc4cc(C(=O)N5[C@H]6CC[C@@H]5[C@@H](N)CC6)cc(OC)n4c3C)n(CC3CC3)c2n1` [Example 491, ethyl~{N}-[2-[7-[(1~{R}, 2~{S},5~{R})-2-amino-8-azabicyclo[3.2.1]octane-8-carbonyl]-5-methoxy-3-methylimidazo[1,2-a]pyridin-2-yl]-1-(cyclopropylmethyl)pyrrolo [2,3-b]pyridin-6-yl]-~{N}-methylcarbamate], with 32000 nM. Regarding `COc1cc(C(=O)N2C[C@H]3CC[C@@H]2[C@@H]3N)cc2nc(-c3cc4ccc(N(C)S(C)(=O)=O)nc4n3C)c(C)n12` [Example 493, N-[2-[7-[(1R,4R, 7R)-7-amino-2-azabicyclo [2.2.1]heptane-2-carbonyl]-5-methoxy-3-methyl-imidazo[1,2-a]pyridin-2-yl]-1-methyl-pyrrolo[2,3-b]pyridin-6-yl]-N-methyl-methanesulfonamide], the IC50 is 2500 nM. Then `COc1cc(C(=O)N2CCC[C@@H](N)C2)cc2nc(-c3cc4ccc(N(C(F)F)S(C)(=O)=O)nc4n3CC(F)(F)F)c(C)n12` [Example 494, ~{N}-[2-[7-[(3~{R})-3-aminopiperidine-1-carbonyl]-5-methoxy-3-methylimidazo[1,2-a]pyridin-2-yl]-1-(2,2,2-trifluoroethyl)pyrrolo [2,3-b]pyridin-6-yl]-~{N}-(difluoromethyl) methanesulfonamide], with 276 nM; and `COc1cc(C(=O)N2[C@@H]3CC[C@@H](N)[C@H]2CC3)cc2nc(-c3cc4ccc(N(C(F)F)S(C)(=O)=O)nc4n3CC(F)(F)F)c(C)n12` [Example 495, ~{N}-[2-[7-[(1~{R},2~{R}, 5~{R})-2-amino-8-azabicyclo[3.2.1]octane-8-carbonyl]-5-methoxy-3-methylimidazo[1,2-a]pyridin-2-yl]-1-(2,2,2-trifluoroethyl)pyrrolo [2,3-b]pyridin-6-yl]-~{N}-(difluoromethyl) methanesulfonamide], with 202 nM; and `COc1cc(C(=O)N2C[C@H](N)CC[C@@H]2C)cc2nc(-c3cc4ccc(N(C(F)F)S(C)(=O)=O)nc4n3CC34CC(C3)C4)c(C)n12` [Example 496, ~{N}-[2-[7-[(2~{S}, 5~{R})-5-amino-2-methylpiperidine-1-carbonyl]-5-methoxy-3-methylimidazo[1,2-a]pyridin-2-yl]-1-(1-bicyclo [1.1.1]pentanylmethyl)pyrrolo [2,3-b]pyridin-6-yl]-~{N}-(difluoromethyl) methanesulfonamide], with 418 nM. For the compound `CCc1ccc2cc(-c3nc4cc(C(=O)N5[C@H]6CC[C@@H]5[C@H](N)C6)cc(OC)n4c3C)n(CCO)c2n1` [Example 497, [(1~{R},2~{R},4~{S})-2-amino-7-azabicyclo [2.2.1]heptan-7-yl]-[2-[6-ethyl-1-(2-hydroxyethyl)pyrrolo[2,3-b]pyridin-2-yl]-5-methoxy-3-methylimidazo [1,2-a]pyridin-7-yl]methanone], the IC50 came to 1230 nM. For the compound `CCc1ccc2cc(-c3nc4cc(C(=O)N5[C@H]6CC[C@@H]5[C@H](N)C6)cc(OC)n4c3C)n(CCS(C)(=O)=O)c2n1` [Example 498, [(1~{R},2~{R},4~{S})-2-amino-7-azabicyclo [2.2.1]heptan-7-yl]-[2-[6-ethyl-1-(2-methylsulfonylethyl)pyrrolo[2,3-b]pyridin-2-yl]-5-methoxy-3-methylimidazo[1,2-a]pyridin-7-yl]methanone], the IC50 was 673 nM.

Consider `CCc1ccc2cc(-c3nc4cc(C(=O)N5[C@H]6CC[C@@H]5[C@H](N)C6)cc(OC)n4c3C)n(CCCO)c2n1` [Example 499, [(1~{R},2~{R},4~{S})-2-amino-7-azabicyclo [2.2.1]heptan-7-yl]-[2-[6-ethyl-1-(3-hydroxypropyl)pyrrolo[2,3-b]pyridin-2-yl]-5-methoxy-3-methylimidazo[1,2-a]pyridin-7-yl]methanone], for which the IC50 was found to be 481 nM. As for `CCc1ccc2cc(-c3nc4cc(C(=O)N5[C@H]6CC[C@@H]5[C@H](N)C6)cc(OC)n4c3C)n(CC(C)(F)F)c2n1` [Example 500, [(1~{R},2~{R},4~{S})-2-amino-7-azabicyclo [2.2.1]heptan-7-yl]-[2-[1-(2,2-difluoropropyl)-6-ethylpyrrolo[2,3-b]pyridin-2-yl]-5-methoxy-3-methylimidazo [1,2-a]pyridin-7-yl] methanone], the figure is 160 nM; as for `CCc1ccc2cc(-c3nc4cc(C(=O)N5[C@H]6CC[C@@H]5[C@H](N)C6)cc(OC)n4c3C)n(C[C@@H]3C[C@@H]3C(F)(F)F)c2n1` [Example 501], 827 nM. Turning to `CCc1ccc2cc(-c3nc4cc(C(=O)N5[C@H]6CC[C@@H]5[C@H](N)C6)cc(OC)n4c3C)n(CC(F)F)c2n1` [Example 502, [(1~{R},2~{R},4~{S})-2-amino-7-azabicyclo [2.2.1]heptan-7-yl]-[2-[1-(2,2-difluoroethyl)-6-ethylpyrrolo[2,3-b]pyridin-2-yl]-5-methoxy-3-methylimidazo [1,2-a]pyridin-7-yl] methanone], the IC50 worked out at 258 nM. Consider `CCc1ccc2cc(-c3nc4cc(C(=O)N5[C@H]6CC[C@@H]5[C@H](N)C6)cc(OC)n4c3C)n(CC3CC3C)c2n1` (stereo partly drawn) [Example 503, [(1~{R},2~{R},4~{S})-2-amino-7-azabicyclo [2.2.1]heptan-7-yl]-[2-[6-ethyl-1-[(2-methylcyclopropyl)methyl]pyrrolo[2,3-b]pyridin-2-yl]-5-methoxy-3-methylimidazo[1,2-a]pyridin-7-yl]methanone], for which the IC50 was determined as 115 nM. In the case of `CCc1ccc2cc(-c3nc4cc(C(=O)N5[C@H]6CC[C@@H]5[C@H](N)C6)cc(OC)n4c3C)n(CC(F)(F)F)c2n1` [Example 504, [(1~{R},2~{R},4~{S})-2-amino-7-azabicyclo [2.2.1]heptan-7-yl]-[2-[6-ethyl-1-(2,2,2-trifluoroethyl)pyrrolo[2,3-b]pyridin-2-yl]-5-methoxy-3-methylimidazo[1,2-a]pyridin-7-yl]methanone], the IC50 was determined as 132 nM. As for `CCc1ccc2cc(-c3nc4cc(C(=O)N5[C@H]6CC[C@@H]5[C@H](N)C6)cc(OC)n4c3C)n(CCC3CC3)c2n1` [Example 505, [(1~{R},2~{R},4~{S})-2-amino-7-azabicyclo [2.2.1]heptan-7-yl]-[2-[1-(2-cyclopropylethyl)-6-ethylpyrrolo[2,3-b]pyridin-2-yl]-5-methoxy-3-methylimidazo[1,2-a]pyridin-7-yl]methanone], the figure is 170 nM.

In general, IC50 refers to the point on the concentration scale where inhibition reaches its midpoint.
